Experimental data taken from patent publication US20060183909A1, “Compositions derived from quinoline and quinoxaline, preparation and use thereof” (priority 2001, published 2006).

Tested on: xanthurenic acid receptor
Test: Screening: displacement of [3H]-XA binding to synaptic membranes at a fixed concentration
Details: not given
Method: If this concentration produces the same or greater displacement than the same concentration of non-radiolabelled XA, then an IC50 is determined. […] The incubation time is 25 min. […] The filters are placed in scintillation vials to which 5 ml of Rotiszint® (Roth) are added and the vials are counted in a Beckman LS6000sc liquid scintillation counter. Specific binding is given as the difference between total binding and nonspecific binding. The percentage inhibition of binding that the synthetic compounds produce is calculated for each compound in relation to its positive control.

| Compound | effect on xanthurenic acid binding, in words |
| --- | --- |
| Cl.NCCCc1cc(O)c2nc(C(=O)O)cc(O)c2c1 [Compound 22c, 4,8-dihydroxy-6-(3-amino-propyl)-quinoline-2-carboxylic acid hydrochloride] | increase the binding of xanthurenic acid |
| O=C(O)c1cc(O)c2cccc(Br)c2n1 [Compound 3x, 4-hydroxy-8-bromo-quinoline-2-carboxylic acid] | increase the binding of xanthurenic acid |

Same assay, conditions: compound at 10 μM; 200 nM [3H]-XA, synaptic membranes

| Compound | real increase in total binding (potentiation) |
| --- | --- |
| Cl.NCCCc1cc(O)c2nc(C(=O)O)cc(O)c2c1 [Compound 22c, 4,8-dihydroxy-6-(3-amino-propyl)-quinoline-2-carboxylic acid hydrochloride] | (+100% real increase |
| O=C(O)c1cc(O)c2cccc(Br)c2n1 [Compound 3x, 4-hydroxy-8-bromo-quinoline-2-carboxylic acid] | (+200% real increase |

Same assay, conditions: compound at 10 μM; 200 nM [3H]-XA, synaptic membranes; xanthurenic acid set arbitrarily to 100%

| Compound | % inhibition of XA binding at 10 μM* |
| --- | --- |
| Cl.Nc1cc(N)c2nc(C(=O)O)cc(O)c2c1 [Compound 32d, 6,8-diamino-4-hydroxy-quinoline-2-carboxylic acid hydrochloride] | 117% |
| O=C(Nc1cccc2c(O)cc(C(=O)O)nc12)c1ccccc1 [Compound 28c, 8-benzoylamino-4-hydroxy-quinoline-2-carboxylic acid] | 48.5% |
| O=C(O)c1cc(O)c2c(-c3ccccc3)ccc(O)c2n1 [Compound 19a, 4,8-dihydroxy-5-phenyl-quinoline-2-carboxylic acid] | 1.8% |
| Cc1cc(N)c2nc(C(=O)O)cc(O)c2c1 [Compound 3w, 4-hydroxy-6-methyl-8-amino-quinoline-2-carboxylic acid] | 0% |
| Cl.Nc1cccc2c(CCCO)cc(C(=O)O)nc12 [Compound 96c, 8-amino-4-(3-hydroxy-prop-1-yl)-quinoline-2-carboxylic acid hydrochloride] | 17% |
| Nc1cccc2ccc(C(=O)O)nc12 [Compound 4f, 8-amino-quinoline-2-carboxylic acid] | 0% |
| Cl.O=C(O)c1cc(N2CCNCC2)c2cccc(O)c2n1 [Compound 87c, 8-hydroxy-4-(piperazin-1-yl)-quinoline-2-carboxylic acid hydrochloride] | 183% |
| COC(=O)c1cc(O)c2cc(Nc3ccccc3)cc(N)c2n1 [Compound 33c, Methyl-6-(N-anilino)-8-amino-4-hydroxy-quinoline-2-carboxylate] | 97% |
| COc1ccc(-c2cc(O)c3nc(C(=O)O)cc(O)c3c2)cc1 [Compound 19g, 4,8-dihydroxy-6-(4-methoxy-phenyl)-quinoline-2-carboxylic acid] | 54.5% |
| O=C(O)c1cc(O)c2ccc(CCc3ccccc3)c(O)c2n1 [Compound 55b, 4,8-dihydroxy-7-phenethyl-quinoline-2-carboxylic acid] | 103% |
| Cl.O=C(O)c1cc(N2CCCCC2)c2cccc(O)c2n1 [Compound 100c, 8-hydroxy-4-(piperidin-1-yl)-quinoline-2-carboxylic acid hydrochloride] | 137% |
| Nc1cc(Cl)cc2c(O)cc(C(=O)O)nc12 [Compound 117d, 6-chloro-8-amino-4-hydroxy-quinoline-2-carboxylic acid] | 97% |
| CN(c1ccccc1)c1cccc2c(O)cc(C(=O)O)nc12.Cl [Compound 106b, 8-[phenyl(methyl)amino]-4-hydroxy-quinoline-2-carboxylic acid hydrochloride] | 29% |
| Cl.O=C(O)c1cc(O)c2cccc(-c3nn[nH]n3)c2n1 [Compound 62b, 4-hydroxy-8-(2H-tetrazol-5-yl)-quinoline-2-carboxylic acid hydrochloride] | 94% |
| Cl.O=C(O)c1cc(O)c2cccc(N3CCNCC3)c2n1 [Compound 108b, 4-hydroxy-8-(piperazin-1-yl)-quinoline-2-carboxylic acid hydrochloride] | 62% |
| O=C(O)c1cc(O)c2cc(CNCc3ccccc3)cc(O)c2n1 [Compound 26a, 4,8-dihydroxy-6-(benzylamino-methyl)-quinoline-2-carboxylic acid] | 0% |
| O=C(O)c1cc(-c2ccccc2)c2cccc(O)c2n1 [Compound 10b, 8-hydroxy-4-phenyl-quinoline-2-carboxylic acid] | 94.5% |

| Compound | % inhibition of XA binding at 10 μM* |
| --- | --- |
| Cl.O=C(O)c1cc(N2CCOCC2)c2cccc(O)c2n1 [Compound 99c, 8-hydroxy-4-(morpholin-1-yl)-quinoline-2-carboxylic acid hydrochloride] | 220% |
| Cl.Nc1cc(CCc2cccnc2)cc2c(O)cc(C(=O)O)nc12 [Compound 122c, 6-(pyridin-3-yl)ethyl-8-amino-4-hydroxy-quinoline-2-carboxylic acid hydrochloride] | 29% |
| Cc1ccc(O)c2nc(C(=O)O)cc(O)c12 [Compound 3e, 4,8-dihydroxy-5-methyl-4-quinoline-2-carboxylic acid] | 48% |
| N#CCCCCCc1cc(N)c2nc(C(=O)O)cc(O)c2c1 [Compound 123c, 6-(5′-cyanopentyl)-8-amino-4-hydroxy-quinoline-2-carboxylic acid] | 100% |
| O=C(O)c1ccc2c(-c3ccccc3)ccc(O)c2n1 [Compound 19t, 8-hydroxy-5-phenyl-quinoline-2-carboxylic acid] | 50% |
| CC(=O)Nc1cccc2c(O)cc(C(=O)O)nc12 [Compound 28a, 8-acetylamino-4-hydroxy-quinoline-2-carboxylic acid] | 0% |
| Cl.NCCCc1cc(O)c2nc(C(=O)O)cc(O)c2c1 [Compound 22c, 4,8-dihydroxy-6-(3-amino-propyl)-quinoline-2-carboxylic acid hydrochloride] | Potentiation |
| Cc1ccc(N)c2nc(C(=O)O)cc(O)c12 [Compound 3v, 4-hydroxy-5-methyl-8-amino-quinoline-2-carboxylic acid] | 23.4% |
| Nc1ccc(CCCO)c2c(O)cc(C(=O)O)nc12 [Compound 75c, 5-hydroxypropyl-8-amino-4-hydroxy quinoline-2-carboxylic acid] | 31% |
| Nc1cc(O)cc2c(O)cc(C(=O)O)nc12 [Compound 79d, 6-hydroxy-8-amino-4-hydroxy-quinoline-2-carboxylic acid] | 60% |
| O=C(O)c1cc(O)c2cccc(OCc3ccccc3)c2n1 [Compound 3y, 4-hydroxy-8-benzyloxy-quinoline-2-carboxylic acid] | 120% |
| N#Cc1cccc2c(O)c(Br)c(C(=O)O)nc12 [Compound 66b, 3-bromo-8-cyano-4-hydroxy-quinoline-2-carboxylic acid] | 69% |
| O=C(O)c1nc2c(O)cccc2c(O)c1Br [Compound 52c, 3-bromo-4,8-dihydroxy-quinoline-2-carboxylic acid] | 143% |
| O=C(O)c1cc(O)c2cccc(Br)c2n1 [Compound 3x, 4-hydroxy-8-bromo-quinoline-2-carboxylic acid] | Potentiation |
| Cl.Nc1cccc2c(N3CCCCC3)cc(C(=O)O)nc12 [Compound 101c, 8-amino-4-(piperidin-1-yl)-quinoline-2-carboxylic acid hydrochloride] | 20% |
| Cl.NCCCc1cc(C(=O)O)nc2c(N)cccc12 [Compound 95c, 8-amino-4-(3-amino-prop-1-yl)-quinoline-2-carboxylic acid hydrochloride] | 57% |

Same assay, conditions: compound at 50 μM; 200 nM [3H]-XA, synaptic membranes; xanthurenic acid set arbitrarily to 100%

| Compound | % inhibition of XA binding at 50 μM* [%] |
| --- | --- |
| Cc1ccc(S(=O)(=O)Nc2cc(C(=O)O)nc3c(O)cccc23)cc1 [Compound 16a, 8-hydroxy-4-(toluene-4-sulfonylamino)-quinoline-2-carboxylic acid] | 77 |
